# In patent US10550165B2, “Peptide for inducing regeneration of tissue and use thereof” (STEMRIM INC., priority 2011, dated 2020):
# “Also recorded” adds a separate entry of the source.
# B1: 63-215: peptide of positions 63 to 215 of HMGB1, produced using HEK293 (protein, UniProt P63158 63-215, looked up, fragment)
# chain: MAKADKARYEREMKTYIPPKGETKKKFKDPNAPKRPPSAFFLFCSEYRPKIKGEHPGLSIGDVAKKLGEMWNNTAADDKQPYEKKAAKLKEKYEKDIAAYRAKGKPDAAKKGVVKAEKSKKKKEEEDDEEDEEDEEEEEEEEDEDEEEDDDDE
# B2: 2-62: human HMGB1 fragment, positions 2 to 62, produced in E. coli (protein, UniProt P09429 2-62, looked up, fragment)
# chain: GKGDPKKPRGKMSSYAFFVQTCREEHKKKHPDASVNFSEFSKKCSERWKTMSAKEKGKFED
# B3: 45-215: peptide of positions 45 to 215 of HMGB1, produced using HEK293 (protein, UniProt P09429 45-215, looked up, fragment)
# chain: CSERWKTMSAKEKGKFEDMAKADKARYEREMKTYIPPKGETKKKFKDPNAPKRPPSAFFLFCSEYRPKIKGEHPGLSIGDVAKKLGEMWNNTAADDKQPYEKKAAKLKEKYEKDIAAYRAKGKPDAAKKGVVKAEKSKKKKEEEEDEEDEEDEEEEEDEEDEDEEEDDDDE
# B4: 1-62: peptide comprising the amino acid sequence of positions 1 to 62, produced using HEK293 (protein, UniProt P63158 1-62, looked up, fragment)
# chain: MGKGDPKKPRGKMSSYAFFVQTCREEHKKKHPDASVNFSEFSKKCSERWKTMSAKEKGKFED
# B5: 85-169: peptide of positions 85 to 169 of mouse HMGB1, produced using HEK293 (protein, UniProt P63158 85-169, looked up, fragment)
# chain: TKKKFKDPNAPKRPPSAFFLFCSEYRPKIKGEHPGLSIGDVAKKLGEMWNNTAADDKQPYEKKAAKLKEKYEKDIAAYRAKGKPD
# B6: 1-84: peptide of positions 1 to 84 of mouse HMGB1, produced using HEK293 (protein, UniProt P63158 1-84, looked up, fragment)
# chain: MGKGDPKKPRGKMSSYAFFVQTCREEHKKKHPDASVNFSEFSKKCSERWKTMSAKEKGKFEDMAKADKARYEREMKTYIPPKGE
# B7: 2-215: human HMGB1 positions 2 to 215 produced in E. coli, nearly the full length, positive control (protein, UniProt P09429 2-215, looked up, fragment)
# chain: GKGDPKKPRGKMSSYAFFVQTCREEHKKKHPDASVNFSEFSKKCSERWKTMSAKEKGKFEDMAKADKARYEREMKTYIPPKGETKKKFKDPNAPKRPPSAFFLFCSEYRPKIKGEHPGLSIGDVAKKLGEMWNNTAADDKQPYEKKAAKLKEKYEKDIAAYRAKGKPDAAKKGVVKAEKSKKKKEEEEDEEDEEDEEEEEDEEDEDEEEDDDDE
# System: mouse bone marrow mesenchymal stem cell line (MSC-1 cells), PDGFRα-positive
# Assay: Migration assay (Boyden / 48-well chemotaxis chamber) on bone marrow mesenchymal stem cell line MSC-1
# Format: cell-based
# Method: Cells of a mouse bone marrow mesenchymal stem cell line (MSC-1 cells, established by Tamai et al. of Osaka University (PDGFRα-positive cells in bone marrow are mobilized by high mobility group box 1 (HMGB1) to regenerate injured epithelia. (Tamai et al., Proc Natl Acad Sci USA. Apr. 4, 2011))) were detached from dishes using trypsin, and collected by centrifugation at 1200 rpm and 4° C. for 10 minutes. The resulting pellet was loosened and suspended at a cell concentration of 2.0×10^6 to 3.0×10^6 cells/ml by adding Dulbecco's Modified Eagle Medium (D-MEM) containing 10% fetal bovine serum (FBS). The recombinant protein and peptides produced in HEK293 were diluted with D-MEM containing 10% FBS. The negative control used was phosphate buffered saline (PBS). An acrylic Boyden chamber was used; cells of the mouse bone marrow mesenchymal stem cell line prepared at a cell concentration of 3×10^6 cells/ml were placed in its upper layer, while a diluted protein or peptide is added to the bottom layer. More specifically, a 28 μl aliquot of a protein or peptide solution was added to each well of the bottom plate of a 48-well chemotaxis chamber (NEURO PROBE 48WELL CHEMOTAXIS CHAMBER), and a polycarbonate membrane with 8 μm pores (Neuro Probe, Inc, Cat: 866-417-0014) was placed on the bottom plate. Then, an upper plate was placed on the membrane and screwed tightly. 50 μl of cells of the mouse bone marrow mesenchymal stem cell line after concentration adjustment were added to the upper plate wells. The chamber was placed in an incubator under 5% CO2 at 37° C. After four hours, the membrane was removed from the chamber and stained with Diff-Quik (Sysmex, Cat: 16920) to detect cells that migrated through membrane pores to the lower compartment.
# The peptides listed below were custom synthesized using the solid phase method by Medical & Biological Laboratories (MBL). The peptides were synthesized based on the mouse HMGB1 sequence (SEQ ID NO: 3). Synthetic peptides described in subsequent Examples were also prepared based on the mouse HMGB1 sequence. • A synthetic peptide consisting of the amino acid sequence from positions 1 to 10 of HMGB1 (1-10); • a synthetic peptide consisting of the amino acid sequence from positions 1 to 34 of HMGB1 (1-34); • a synthetic peptide consisting of the amino acid sequence from positions 37 to 62 of HMGB1 (37-62); • a synthetic peptide consisting of the amino acid sequence from positions 27 to 62 of HMGB1 (27-62); • a synthetic peptide consisting of the amino acid sequence from positions 56 to 72 of HMGB1 (56-72); • a synthetic peptide consisting of the amino acid sequence from positions 11 to 20 of HMGB1 (11-20); • a synthetic peptide consisting of the amino acid sequence from positions 11 to 25 of HMGB1 (11-25); • a synthetic peptide consisting of the amino acid sequence from positions 11 to 30 of HMGB1 (11-30); • a synthetic peptide consisting of the amino acid sequence from positions 11 to 34 of HMGB1 (11-34); • a synthetic peptide consisting of the amino acid sequence from positions 11 to 44 of HMGB1 (11-44); • a synthetic peptide consisting of the amino acid sequence from positions 17 to 44 of HMGB1 (17-44); • a synthetic peptide consisting of the amino acid sequence from positions 1 to 25 of HMGB1 (1-25); and the whole mouse HMGB1 produced in HEK293 (1-215(HEK)) as a positive control were adjusted to 100 μg/ml and placed in the lower layer of a chemotaxis chamber to assess the migration-promoting activity on bone marrow mesenchymal stem cell line (MSC-1). Results
# As positive controls, centrifuged supernatant of the skin of a one-day-old mouse (one individual) incubated in PBS at 4° C. for 12 hours, and the whole mouse HMGB1 (HMGB1(HEK_1-215)) produced in HEK293 were used. […]
# [1] = synthetic peptides, 5 μM, FIGS. 8A and 8B
# [2] = synthetic peptides, 10 μM and 5 μM, FIG. 9
# [3] = 2 μM, area of migrated cells by image analysis, FIG. 10
# [4] = peptides produced using HEK293, 5, 15 and 25 μg/ml, FIG. 3
# [5] = human HMGB1 fragments produced in E. coli, 2 μM, FIG. 18B
# [6] = protein and peptides produced using HEK293 (mouse HMGB1), 50 μg/ml, 4 h, FIG. 2A
molecule,measurement,setting,value
"(13-25): synthetic peptide consisting of the amino acid sequence from positions 13 to 25 of HMGB1 (MSSYAFFVQTCRE; UniProt P09429 13-25, looked up, fragment)",migration-promoting activity,[1],weak activity
"(13-30): synthetic peptide consisting of the amino acid sequence from positions 13 to 30 of HMGB1 (MSSYAFFVQTCREEHKKK; UniProt P09429 13-30, looked up, fragment)",migration-promoting activity,[1],strong migration-promoting activity
"(14-25): synthetic peptide consisting of the amino acid sequence from positions 14 to 25 of HMGB1 (SSYAFFVQTCRE; UniProt P09429 14-25, looked up, fragment)",migration-promoting activity,[1],weak activity
"(14-30): synthetic peptide consisting of the amino acid sequence from positions 14 to 30 of HMGB1 (SSYAFFVQTCREEHKKK; UniProt P09429 14-30, looked up, fragment)",migration-promoting activity,[1],strong migration-promoting activity
"(15-25): synthetic peptide consisting of the amino acid sequence from positions 15 to 25 of HMGB1 (SYAFFVQTCRE; UniProt P09429 15-25, looked up, fragment)",migration-promoting activity,[1],weak activity
"(15-30): synthetic peptide consisting of the amino acid sequence from positions 15 to 30 of HMGB1 (SYAFFVQTCREEHKKK; UniProt P09429 15-30, looked up, fragment)",migration-promoting activity,[1],weak activity
"(16-25): synthetic peptide consisting of the amino acid sequence from positions 16 to 25 of HMGB1 (YAFFVQTCRE; UniProt P09429 16-25, looked up, fragment)",migration-promoting activity,[1],weak activity
"(16-30): synthetic peptide consisting of the amino acid sequence from positions 16 to 30 of HMGB1 (YAFFVQTCREEHKKK; UniProt P09429 16-30, looked up, fragment)",migration-promoting activity,[1],weak activity
"(17-30): synthetic peptide consisting of the amino acid sequence from positions 17 to 30 of HMGB1 (AFFVQTCREEHKKK; UniProt P09429 17-30, looked up, fragment)",migration-promoting activity,[1],weak activity
"(45-74): synthetic peptide consisting of the amino acids of positions 45 to 74 (CSERWKTMSAKEKGKFEDMAKADKARYERE; UniProt P09429 45-74, looked up, fragment)",migration-promoting activity,[2],exhibited migration-promoting activity which was however weaker as compared to synthetic peptides (1-44) and (1-34)
"(55-84): synthetic peptide consisting of the amino acids of positions 55 to 84 (KEKGKFEDMAKADKARYEREMKTYIPPKGE; UniProt P09429 55-84, looked up, fragment)",migration-promoting activity,[2],exhibited migration-promoting activity which was however weaker as compared to synthetic peptides (1-44) and (1-34)
"peptide (1-44) produced in E. coli: amino acids of positions 1 to 44 of mouse HMGB1 produced using E. coli, tag removed by HRV3C (MGKGDPKKPRGKMSSYAFFVQTCREEHKKKHPDASVNFSEFSKK; UniProt P63158 1-44, looked up, fragment)","migration-promoting activity relative to the full-length HMGB1, compared per equal mass",[3],about 8 times
same,"migration-promoting activity relative to the full-length HMGB1, compared per equal mole",[3],about 1.6 times
B1,migration-promoting activity,[4],exhibited migration-promoting activity in a concentration-dependent manner
B2,migration-promoting activity,[5],showed migration-promoting activity on bone marrow mesenchymal stem cells
B3,migration-promoting activity,[4],exhibited migration-promoting activity in a concentration-dependent manner; also recorded: stronger as compared to 63-215
B4,activity of promoting the migration of MSC-1,"peptides produced using HEK293, concentration not stated",showed the activity of promoting the migration of bone marrow mesenchymal stem line MSC-1
B5,migration-promoting activity,[6],did not show detectable migration-promoting activity
B6,migration-promoting activity,[6],showed migration-promoting activity
B7,migration-promoting activity,[5],showed migration-promoting activity on bone marrow mesenchymal stem cells
